Measurements as given in PubChem BioAssay AID588741 (Johns Hopkins Ion Channel Center, 2011).
Calls of active or inactive are those of the source.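 How the source made its calls: active means peak inhibition of the hERG potassium channel flux above 30% at some tested dose, plus a fitted dose response curve; inactive means no inhibition at any dose, or no curve.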

Each compound was assayed against Voltage-gated inwardly rectifying potassium channel KCNH2 (Homo sapiens) (UniProt Q12809) (assay: hERG channel inhibition, SAR follow-up, selectivity assay for KCNK9 inhibitor project, cell-based, FluxOR thallium flux, CRC set 3 (AID 588741)). Settings: hERG-expressing cells, FluxOR thallium flux fluorescence.
Voltage-gated inwardly rectifying potassium channel KCNH2 (Homo sapiens), sequence (Q12809 whole entry, looked up): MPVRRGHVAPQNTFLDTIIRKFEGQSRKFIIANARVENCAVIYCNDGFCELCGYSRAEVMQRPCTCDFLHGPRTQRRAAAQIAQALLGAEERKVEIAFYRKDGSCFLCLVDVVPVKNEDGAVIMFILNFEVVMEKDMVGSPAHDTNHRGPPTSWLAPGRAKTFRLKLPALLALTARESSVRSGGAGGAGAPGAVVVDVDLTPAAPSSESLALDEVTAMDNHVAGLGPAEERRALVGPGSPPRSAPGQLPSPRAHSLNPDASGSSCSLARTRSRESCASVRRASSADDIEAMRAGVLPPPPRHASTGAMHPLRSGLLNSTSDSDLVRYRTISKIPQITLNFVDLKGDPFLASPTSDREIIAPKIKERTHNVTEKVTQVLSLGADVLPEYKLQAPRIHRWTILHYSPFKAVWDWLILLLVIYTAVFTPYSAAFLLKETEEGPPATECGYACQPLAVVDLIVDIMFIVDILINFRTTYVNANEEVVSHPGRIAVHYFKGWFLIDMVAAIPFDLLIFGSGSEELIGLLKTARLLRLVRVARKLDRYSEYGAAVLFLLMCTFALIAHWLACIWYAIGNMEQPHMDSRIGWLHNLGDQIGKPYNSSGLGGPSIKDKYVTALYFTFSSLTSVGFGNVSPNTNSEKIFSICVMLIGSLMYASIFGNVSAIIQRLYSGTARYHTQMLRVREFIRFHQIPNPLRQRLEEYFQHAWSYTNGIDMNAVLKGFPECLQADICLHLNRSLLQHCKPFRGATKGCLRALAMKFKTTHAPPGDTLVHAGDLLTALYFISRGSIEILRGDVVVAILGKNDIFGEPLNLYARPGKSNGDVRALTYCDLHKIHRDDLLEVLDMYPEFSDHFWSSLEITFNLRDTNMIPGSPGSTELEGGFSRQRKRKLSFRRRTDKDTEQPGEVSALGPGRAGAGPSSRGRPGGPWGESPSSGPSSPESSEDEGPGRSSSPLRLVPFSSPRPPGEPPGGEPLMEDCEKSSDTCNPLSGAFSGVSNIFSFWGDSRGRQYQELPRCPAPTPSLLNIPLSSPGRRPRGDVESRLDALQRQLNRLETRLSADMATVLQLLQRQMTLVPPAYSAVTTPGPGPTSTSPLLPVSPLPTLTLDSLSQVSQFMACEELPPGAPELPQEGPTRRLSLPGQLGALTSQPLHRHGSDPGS

| SMILES | IC50 |
| --- | --- |
| COc1ccc(C(=O)CSc2nnc(-c3ccco3)n2C(C)C2CC3CCC2C3)cc1OC (stereo not drawn) | 13.6 µM |
| CC(C1CC2CCC1C2)n1c(SCC(=O)c2ccccc2)nnc1-c1ccco1 (stereo not drawn) | 23.9 µM |
| CC(C1CC2CCC1C2)n1c(SCc2ccccc2)nnc1-c1ccco1 (stereo not drawn) | 9.77 µM |
| COc1cccc(C(=O)CSc2nnc(-c3ccco3)n2C(C)C2CC3CCC2C3)c1 (stereo not drawn) | 17.2 µM |
| CC(C1CC2CCC1C2)n1c(SCC(=O)c2ccc3c(c2)OCO3)nnc1-c1ccco1 (stereo not drawn) | 3.45 µM |
| COc1ccc(C(=O)CSc2nnc(-c3ccco3)n2C(C)C2CC3CCC2C3)cc1 (stereo not drawn) | 20.1 µM |
| COc1ccc(CCSc2nnc(-c3ccco3)n2C(C)C2CC3CCC2C3)cc1OC (stereo not drawn) | 16.7 µM |

Same assay, conditions: hERG-expressing cells, FluxOR thallium flux fluorescence; at 30 µM (top of the series)

| SMILES | flux ratio, lower = inhibition |
| --- | --- |
| CC(C1CC2CCC1C2)n1c(-c2ccco2)n[nH]c1=S (stereo not drawn) | inactive |
| C[C@@H](C1CCCCC1)n1c(-c2ccco2)n[nH]c1=S | inactive |
| CC(C1CC2CCC1C2)n1c(-c2cccc(N(C)C)c2)n[nH]c1=S (stereo not drawn) | inactive |
| COc1ccccc1C(=O)Nc1cccc(NC(=O)c2cccc3ccccc23)c1 | inactive |
| CC(C)c1ccccc1C(=O)Nc1cccc(NC(=O)c2ccccc2OC(F)(F)F)c1 | inactive |
| CC(C1CC2CCC1C2)n1c(-c2ccc(N(C)C)cc2)n[nH]c1=S (stereo not drawn) | inactive |
| CC(C1CC2CCC1C2)N(C)C(=O)c1ccco1 (stereo not drawn) | inactive |
| CC(C1CC2CCC1C2)n1cnnc1-c1ccco1 (stereo not drawn) | inactive |
| CC(c1cccc2ccccc12)n1c(-c2ccco2)n[nH]c1=S (stereo not drawn) | inactive |
| COc1cccc(-c2nnc(S(C)(=O)=O)n2C(C)C2CC3CCC2C3)c1 (stereo not drawn) | inactive |
| CSc1nnc(-c2ccco2)n1C(C)C1CC2CCC1C2 (stereo not drawn) | inactive |
| COc1ccccc1C(=O)Nc1cc(NC(=O)c2ccccc2C(C)C)ccc1F | inactive |
| S=c1[nH]nc(-c2ccco2)n1CC1CC2CCC1C2 (stereo not drawn) | inactive |
| CC(C1CCCCC1)n1c(-c2ccco2)n[nH]c1=S (stereo not drawn) | inactive |
| CC(C1CC2CCC1C2)n1c(-c2cccn2C)n[nH]c1=S (stereo not drawn) | inactive |
| CC(C1CC2CCC1C2)n1c(-c2cccnc2)n[nH]c1=S (stereo not drawn) | inactive |
| CC(C1CC2CCC1C2)n1c(-c2ccccn2)n[nH]c1=S (stereo not drawn) | inactive |
| CC(C1CC2CCC1C2)n1c(SCC(=O)c2ccc(Cl)c(Cl)c2)nnc1-c1ccco1 (stereo not drawn) | inactive |

| SMILES | flux ratio, lower = inhibition |
| --- | --- |
| CC(C)Oc1ccccc1C(=O)Nc1cccc(NC(=O)c2ccccc2OC(F)(F)F)c1 | inactive |
| CC(C1CC2CCC1C2)n1c(-c2ccccc2F)n[nH]c1=S (stereo not drawn) | inactive |
| S=c1[nH]nc(-c2ccco2)n1C1CC2CCC1C2 (stereo not drawn) | inactive |
| CC(C1C2CCC1CC2)n1c(-c2ccco2)n[nH]c1=S (stereo not drawn) | inactive |
| CC(C1CC2CCC1C2)n1c(-c2ccco2)nnc1C(F)(F)F (stereo not drawn) | inactive |
| C[C@H](C1CCCCC1)n1c(-c2ccco2)n[nH]c1=S | inactive |
| COc1cc(OC)cc(-c2n[nH]c(=S)n2C(C)C2CC3CCC2C3)c1 (stereo not drawn) | inactive |
| COc1cccc(Cc2n[nH]c(=S)n2C(C)C2CC3CCC2C3)c1 (stereo not drawn) | inactive |
| COc1cccc(-c2n[nH]c(=S)n2C(C)C2CC3CCC2C3)c1OC (stereo not drawn) | inactive |
| CC(C1CC2CCC1C2)n1c(-c2cccs2)n[nH]c1=S (stereo not drawn) | inactive |
| CC(CCC1CCCC1)n1c(-c2ccco2)n[nH]c1=S (stereo not drawn) | inactive |
| CC(C1CC2CCC1C2)n1c(-c2cccc(F)c2)n[nH]c1=S (stereo not drawn) | inactive |
| CC(C1CC2CCC1C2)n1c(-c2ccncc2)n[nH]c1=S (stereo not drawn) | inactive |
| CC(NC(=O)c1ccco1)C1CC2CCC1C2 (stereo not drawn) | inactive |
| CC(CC1CC2CCC1C2)n1c(-c2ccco2)n[nH]c1=S (stereo not drawn) | inactive |
| CC(C1CC2CCC1C2)n1c(SC(F)F)nnc1-c1ccco1 (stereo not drawn) | inactive |
| CC(C1CC2CCC1C2)n1c(SCC#N)nnc1-c1cccs1 (stereo not drawn) | inactive |
| CC(C1CC2CCC1C2)n1c(-c2ccco2)n[nH]c1=O (stereo not drawn) | inactive |
